Laboratory results as given in patent US7713971B2, “1,2,4-triazine derivatives, preparation and use thereof in human therapy” (Pierre Fabre Medicament, priority 2005, dated 2010).
Where two headings read alike, the source gives them in different places.

What was measured:
[1] = test system: insulin-resistant male rat (Ico: ZUCKER-fa/fa); assay: Normalization of metabolic parameters (cholesterol, plasma triglycerides) in insulin-resistant rat; type: in vivo; settings: oral route, once per day for four days, Zucker fa/fa rat unfed 16-18 hours; for change in vivo at 2.5 mg/kg / change in vivo at 10 mg/kg: 96 h
Experimental: Normalization of metabolic parameters (cholesterol, plasma triglycerides) in an insulin-resistant male rat (Ico: ZUCKER-fa/fa), unfed for 16-18 hours, after treatment by oral route, once per day for four days, with the compounds to be evaluated or their administration vehicle.
These metabolic parameters are measured by spectrophotometry at the beginning and the end of each animal's treatment.

human PPARγ = molecular target: T1, human PPARγ (Homo sapiens, UniProt P37231); assay: Reporter gene transactivation, hPPAR-GAL4 gamma; type: cell-based; settings: transfected Cos-7 cells, Gal-4 luciferase reporter, 24 hours treatment
T1 construct: expressed in transfected cells; host or cells: Cos-7 cells (ATCC, CRL-1651)
T1 sequence (P37231 238-503 limits assumed): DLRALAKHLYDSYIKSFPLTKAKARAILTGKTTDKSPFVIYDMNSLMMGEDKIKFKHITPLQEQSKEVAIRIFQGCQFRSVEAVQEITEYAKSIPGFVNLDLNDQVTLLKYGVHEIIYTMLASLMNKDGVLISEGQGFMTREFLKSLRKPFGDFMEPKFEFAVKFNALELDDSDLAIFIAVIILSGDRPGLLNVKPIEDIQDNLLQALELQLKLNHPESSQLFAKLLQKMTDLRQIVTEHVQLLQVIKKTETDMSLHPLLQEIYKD

human PPARα = molecular target: T2, human PPARα (Homo sapiens, UniProt Q07869); assay: Reporter gene transactivation, hPPAR-GAL4 alpha; type: cell-based; settings: transfected Cos-7 cells, Gal-4 luciferase reporter, 24 hours treatment
T2 construct: expressed in transfected cells; host or cells: Cos-7 cells (ATCC, CRL-1651)
T2 sequence (Q07869 239-466 limits assumed): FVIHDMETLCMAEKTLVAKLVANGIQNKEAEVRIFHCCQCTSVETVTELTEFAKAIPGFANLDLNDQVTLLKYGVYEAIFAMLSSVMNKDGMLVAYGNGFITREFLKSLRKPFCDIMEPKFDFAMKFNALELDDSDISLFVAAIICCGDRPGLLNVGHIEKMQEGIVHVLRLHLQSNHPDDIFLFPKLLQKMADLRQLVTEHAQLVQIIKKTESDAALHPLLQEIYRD

human PPARδ = molecular target: T3, human PPARδ (Homo sapiens, UniProt Q03181); assay: Reporter gene transactivation, hPPAR-GAL4 delta; type: cell-based; settings: transfected Cos-7 cells, Gal-4 luciferase reporter, 24 hours treatment
T3 construct: expressed in transfected cells; host or cells: Cos-7 cells (ATCC, CRL-1651)
T3 sequence (Q03181 211-439 limits assumed): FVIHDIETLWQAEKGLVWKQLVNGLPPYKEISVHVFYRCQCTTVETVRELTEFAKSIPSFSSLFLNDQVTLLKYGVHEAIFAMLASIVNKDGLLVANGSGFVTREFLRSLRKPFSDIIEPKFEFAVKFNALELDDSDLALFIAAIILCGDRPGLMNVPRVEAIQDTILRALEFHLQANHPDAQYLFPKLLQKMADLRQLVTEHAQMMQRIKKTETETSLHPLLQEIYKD

[2] = at 2.5 mg/kg, read-out: Plasma cholesterol
[3] = at 10 mg/kg, read-out: Plasma cholesterol
[4] = at 10 mg/kg, read-out: Plasma triglycerides

| Compound | EC50 (human PPARγ) | EC50 (human PPARα) | EC50 (human PPARδ) | change in vivo at 2.5 mg/kg [1, 2] | change in vivo at 10 mg/kg [1, 3] | change in vivo at 10 mg/kg [1, 4] | Plasma triglycerides ([1]; at 2.5 mg/kg) | Plasma triglycerides ([1]; at 10 mg/kg) | change in vivo at 2.5 mg/kg ([1]; at 2.5 mg/kg, read-out: Plasma triglycerides) | Plasma cholesterol ([1]; at 2.5 mg/kg) |
| --- | --- | --- | --- | --- | --- | --- | --- | --- | --- | --- |
| Cn1nc(NCCCCc2cccc(SC(C)(C)C(=O)O)c2)c(=O)n(CCCC(F)(F)F)c1=O [Example 96, 2-Methyl-2-(3-{4-[2-methyl-3,5-dioxo-4-(4,4,4-trifluoro-butyl)-2,3,4,5-tetrahydro-[1,2,4]triazin-6-ylamino]-butyl}-phenylsulfanyl)-propionic Acid] | ~10000 nM | 30 to 100 nM | > 10000 nM | -28% | -21% | -60% | – | – | -26% | – |
| CCOC(=O)C(C)(C)Oc1cccc(CCCCNc2nn(CCCC(F)(F)F)c(=O)n(CC=C(C)C)c2=O)c1 [Example 76, Ethyl 2-methyl-2-(3-{4-[4-(3-methyl-but-2-enyl)-3,5-dioxo-2-(4,4,4-trifluoro-butyl)-2,3,4,5-tetrahydro-[1,2,4]triazin-6-ylamino]-butyl}-phenoxy)-propionate] | 1000 to 3000 nM | 10 to 30 nM | 3000 to 10000 nM | -16% | -22% | -7% | – | – | – | – |
| CCCCCCCn1nc(OCCCc2ccc(OC(C)(C)C(=O)OCC)cc2)c(=O)n(C)c1=O [Example 27, Ethyl 2-{4-[3-(2-heptyl-4-methyl-3,5-dioxo-2,3,4,5-tetrahydro-[1,2,4]triazin-6-yloxy)-propyl]-phenoxy}-2-methyl-propionate] | 3000 to 10000 nM | ~3000 nM | 3000 to 10000 nM | – | – | – | – | – | – | – |
| CCCCCCCn1nc(OCCCCc2ccc(OC(C)(C)C(=O)OCC)cc2)c(=O)n(C)c1=O [Example 29, Ethyl 2-{4-[4-(2-heptyl-4-methyl-3,5-dioxo-2,3,4,5-tetrahydro-[1,2,4]triazin-6-yloxy)-butyl]-phenoxy}-2-methyl-propionate] | 3000 to 10000 nM | 3000 to 10000 nM | 3000 to 10000 nM | – | – | – | – | – | – | – |
| CCCCCCCN(CCc1ccc(OC(C)(C)C(=O)O)cc1)c1nn(C)c(=O)n(C)c1=O [Example 113, 2-(4-{2-[(2,4-Dimethyl-3,5-dioxo-2,3,4,5-tetrahydro-[1,2,4]triazin-6-yl)-heptyl-amino]-ethyl}-phenoxy)-2-methyl-propionic Acid] | 3000 to 10000 nM | 300 to 1000 nM | 300 to 1000 nM | -30% | -40% | -26% | inactive at 2.5 | – | – | – |
| CCOC(=O)C(C)(C)Oc1ccc(OCCNc2nn(CCCC(F)(F)F)c(=O)n(CCCC(F)(F)F)c2=O)cc1 [Example 41, Ethyl 2-(4-{2-[3,5-dioxo-2,4-bis-(4,4,4-trifluoro-butyl)-2,3,4,5-tetrahydro-[1,2,4]triazin-6-ylamino]-ethoxy}-phenoxy)-2-methyl-propionate] | ~10000 nM | ~100 nM | 1000 to 3000 nM | – | -28% | – | – | inactive at 10 | – | – |
| CCOC(=O)C(C)(C)Oc1cccc(CCCNc2nn(CCCC(F)(F)F)c(=O)n(CCCC(F)(F)F)c2=O)c1 [Example 66, Ethyl 2-(3-{3-[3,5-dioxo-2,4-bis-(4,4,4-trifluoro-butyl)-2,3,4,5-tetrahydro-[1,2,4]triazin-6-ylamino]-propyl}-phenoxy)-2-methyl-propionate] | > 10000 nM | 30 to 100 nM | ~10000 nM | – | -9% | – | – | inactive at 10 | – | – |
| CCCCCCCN(CCc1ccc(OC(C)(C)C(=O)OCC)cc1)c1nn(C)c(=O)n(C)c1=O [Example 112, Ethyl 2-(4-{2-[(2,4-dimethyl-3,5-dioxo-2,3,4,5-tetrahydro-[1,2,4]triazin-6-yl)-heptyl-amino]-ethyl}-phenoxy)-2-methyl-propionate] | ~10000 nM | 1000 to 3000 nM | 1000 to 3000 nM | – | -43% | -31% | – | – | – | – |
| CCCCCCCn1nc(NCCOc2ccc(OC(C)(C)C(=O)OCC)cc2)c(=O)n(CCCCCCC)c1=O [Example 42, Ethyl 2-{4-[2-(2,4-diheptyl-3,5-dioxo-2,3,4,5-tetrahydro-[1,2,4]triazin-6-ylamino)-ethoxy]-phenoxy}-2-methyl-propionate] | > 10000 nM | ~1000 nM | 1000 to 3000 nM | – | – | – | – | – | – | – |

More lines, main results first:

| EC50 (human PPARγ) | EC50 (human PPARα) | EC50 (human PPARδ) | Compound | change in vivo at 2.5 mg/kg [1, 2] | change in vivo at 10 mg/kg [1, 3] | change in vivo at 10 mg/kg [1, 4] | Plasma triglycerides ([1]; at 2.5 mg/kg) | Plasma triglycerides ([1]; at 10 mg/kg) | change in vivo at 2.5 mg/kg ([1]; at 2.5 mg/kg, read-out: Plasma triglycerides) | Plasma cholesterol ([1]; at 2.5 mg/kg) |
| --- | --- | --- | --- | --- | --- | --- | --- | --- | --- | --- |
| 100 to 300 nM | 10 to 30 nM | ~3000 nM | CCCCn1nc(OCCCCCc2cccc(OC(C)(C)C(=O)OCC)c2)c(=O)n(CCCC)c1=O [Example 13, Ethyl 2-{3-[5-(2,4-dibutyl-3,5-dioxo-2,3,4,5-tetrahydro-[1,2,4]triazin-6-yloxy)-pentyl]-phenoxy}-2-methyl-propionate] | -8% | -12% | -28% | inactive at 2.5 | – | – | – |
| 300 to 1000 nM | 10 to 30 nM | > 10000 nM | CCOC(=O)C(C)(C)Oc1cccc(CCCCNc2nn(CCCC(F)(F)F)c(=O)n(CCCC(F)(F)F)c2=O)c1 [Example 80, Ethyl 2-(3-{4-[3,5-dioxo-2,4-bis-(4,4,4-trifluoro-butyl)-2,3,4,5-tetrahydro-[1,2,4]triazin-6-ylamino]-butyl}-phenoxy)-2-methyl-propionate] | – | -16% | – | – | inactive at 10 | – | – |
| ~300 nM | 3 to 10 nM | 1000 to 3000 nM | CCCCCCCn1nc(NCCCCc2cccc(OC(C)(C)C(=O)O)c2)c(=O)n(CCCC(F)(F)F)c1=O [Example 84, 2-(3-{4-[2-Heptyl-3,5-dioxo-4-(4,4,4-trifluoro-butyl)-2,3,4,5-tetrahydro-[1,2,4]triazin-6-ylamino]-butyl}-phenoxy)-2-methyl-propionic Acid] | – | -13% | -7% | inactive at 2.5 | – | – | inactive at 2.5 |
| ~1000 nM | ~100 nM | 3000 to 10000 nM | CCCCCCCn1c(=O)c(OCCCCc2ccc(OC(C)(C)C(=O)OCC)cc2)nn(CCCC(F)(F)F)c1=O [Example 31, Ethyl 2-(4-{4-[4-heptyl-3,5-dioxo-2-(4,4,4-trifluoro-butyl)-2,3,4,5-tetrahydro-[1,2,4]triazin-6-yloxy]-butyl}-phenoxy)-2-methyl-propionate] | – | – | – | – | – | – | – |
| ~1000 nM | 10 to 30 nM | ~10000 nM | CCCCn1c(=O)c(OCCCCCc2cccc(OC(C)(C)C(=O)OCC)c2)nn(CCCC(F)(F)F)c1=O [Example 14, Ethyl 2-(3-{5-[4-Butyl-3,5-dioxo-2-(4,4,4-trifluoro-butyl)-2,3,4,5-tetrahydro-[1,2,4]triazin-6-yloxy]-pentyl}-phenoxy)-2-methyl-propionate] | – | – | – | – | – | – | – |
